Key:
interferon (α) = experiment: Interferon (α) induction in human cells (in vitro human blood cell system, interferon by bioassay); assay type: cell-based; conditions: human PBM's, 48 hours
Description: An in vitro human blood cell system was used to assess interferon induction by compounds of the invention. Activity is based on the measurement of interferon secreted into culture media. Interferon is measured by bioassay.
Whole blood is collected by venipuncture into EDTA vacutainer tubes. Peripheral blood mononuclear cells (PBM's) are separated from whole blood by using either LeucoPREP™ Brand Cell Separation Tubes (available from Becton Dickinson) or Ficoll-Paque® solution (available from Pharmacia LKB Biotechnology Inc, Piscataway, N.J.). […] 200 μL portions of PBM suspension are added to 96 well (flat bottom) sterile tissue culture plates (Becton Dickinson Labware, Lincoln Park, N.J.).
The compounds are solubilized in ethanol, dimethyl sulfoxide or tissue culture water then diluted with tissue culture water, 0.01N sodium hydroxide or 0.01N hydrochloric acid (The choice of solvent will depend on the chemical characteristics of the compound being tested.). Ethanol or DMSO concentration should not exceed a final concentration of 1% for addition to the culture wells. Compounds are initially tested in a concentration range of from about 0.1 μg/mL to about 5 μg/mL. Compounds which show induction at a concentration of 0.5 μg/mL are then tested in a wider concentration range.
The solution of test compound is added in a volume (less than or equal to 50 μL) to the wells containing 200 μL of diluted whole blood or of PBM's in media. Solvent and/or media is added to control wells (wells with no test compound) and as needed to adjust the final volume of each well to 250 μL. The plates are covered with plastic lids, vortexed gently and then incubated for 48 hours at 37° C. with a 5% carbon dioxide atmosphere.
Following incubation, the plates are covered with parafilm and then centrifuged at 1000 rpm for 10 to 15 minutes at 4° C. in a Damon IEC Model CRU-5000 centrifuge. Media (about 200 μL) is removed from 4 to 8 wells and pooled into 2 mL sterile freezing vials. Samples are maintained at −70° C. until analysis.
Interferon is determined by bioassay using A549 human lung carcinoma cells challenged with encephalomyocarditis. The details of the bioassay method have been described by G. L. Brennan and L. H. Kronenberg in “Automated Bioassay of Interferons in Micro-test Plates”, Biotechniques, June/Jul. […] The incubated cells are infected with an inoculum of encephalomyocarditis virus. The infected cells are incubated for an additional period at 37° C. before quantifying for viral cytopathic effect. The viral cytopathic effect is quantified by staining followed by spectrophotometric absorbance measurements. Results are expressed as alpha reference units/mL based on the value obtained for NIH HU IF-L standard.
Compounds of the invention were tested for their ability to induce interferon in human cells using the test method described above.

Row | melting point | SMILES | Interferon (α) Induction in Human Cells (interferon (α); Dose Concentration 0.01 μg/mL) | Interferon (α) Induction in Human Cells (interferon (α); Dose Concentration 0.05 μg/mL) | Interferon (α) Induction in Human Cells (interferon (α); Dose Concentration 0.10 μg/mL) | Interferon (α) Induction in Human Cells (interferon (α); Dose Concentration 0.50 μg/mL) | Interferon (α) Induction in Human Cells (interferon (α); Dose Concentration 1.0 μg/mL) | Interferon (α) Induction in Human Cells (interferon (α); Dose Concentration 5.0 μg/mL) | Interferon (α) Induction in Human Cells (interferon (α); Dose Concentration 10.0 μg/mL) | Interferon (α) Induction in Human Cells (interferon (α); Dose Concentration 25.0 μg/mL) | Interferon (α) Induction in Human Cells (interferon (α); Dose Concentration 50.0 μg/mL)
1 | 123 to 125 °C | CC(C)Cc1nc2c(N)nc3ccccc3c2s1 [Example 32, 2-(2-Methylpropyl)thiazolo[4,5-c]quinolin-4-amine] | − | − | ± | + | + | + |  |  | 
2 | 147 to 149 °C | CCCc1nc2c(N)nc3ccc(C)cc3c2s1 [Example 36, 8-Methyl-2-propylthiazolo[4,5-c]quinolin-4-amine] | − | − | − | − | + | + |  |  | 
3 | 247 to 249 °C | Nc1nc2ccccc2c2sc(CO)nc12 [Example 37, (4-Aminothiazolo[4,5-c]quinolin-2-yl)-methanol] | − | − | − | − | − | − |  |  | 
4 | 195 to 197 °C | Cc1nc2c(N)nc3ccccc3c2o1 [Example 38, 2-Methyloxazolo[4,5-c]quinolin-4-amine] | − | − | − | + | + | + |  |  | 
5 | 175 to 178 °C | CCc1nc2c(N)nc3ccccc3c2o1 [Example 39, 2-Ethyloxazolo [4,5-c]quinolin-4-amine] | − | − | + | + | + | + |  |  | 
6 | 159 to 160 °C | CCCc1nc2c(N)nc3ccccc3c2o1 [Example 43, 2-Propyloxazolo[4,5-c]quinolin-4-amine] | − | + | + | + | + | + |  |  | 
7 | 177 to 180 °C | CCCc1nc2c(N)nc3ccc(Br)cc3c2s1 [Example 44, 8-Bromo-2-propylthiazolo[4,5-c]quinolin-4-amine] |  |  | − | − | − | + | + | + | +
8 | 186 to 187 °C | CCCc1nc2c(N)nc3cc(C)ccc3c2s1 [Example 45, 7-Methyl-2-propylthiazolo[4,5-c]quinolin-4-amine] | − | + | + | + | + | + |  |  | 
9 | 187 to 188 °C | CCCCc1nc2c(N)nc3cc(C)ccc3c2o1 [Example 46, 2-Butyl-7-methyloxazolo[4,5-c]quinolin-4-amine] | − | + | + | + | + | + |  |  | 
10 | 188 to 189 °C | CCCc1nc2c(N)nc3cc(C)ccc3c2o1 [Example 47, 7-Methyl-2-propyloxazolo[4,5-c]quinolin-4-amine] | − | + | + | + | + | + |  |  | 
11 | 184 to 187 °C | CCCc1nc2c(N)nc3cc(F)ccc3c2o1 [Example 48, 7-Fluoro-2-propyloxazolo[4,5-c]quinolin-4-amine] | − | − | − | + | + | + |  |  | 
12 | 192.5 to 193.5 °C | CCCc1nc2c(N)nc3cc(F)ccc3c2s1 [Example 49, 7-Fluoro-2-propylthiazolo[4,5-c]quinolin-4-amine] | − | − | − | + | + | + |  |  | 
13 | 215 to 216 °C | CCCc1nc2c(N)nc3cc(C(F)(F)F)ccc3c2s1 [Example 50, 2-Propyl-7-(trifluoromethyl)thiazolo[4,5-c]quinolin-4-amine] |  |  | − | + | + | + | + | + | +
14 | 259 to 261 °C | Nc1nc2ccccc2c2sc(N3CCCC3)nc12 [Example 54, 2-(1-Pyrrolidino)thiazolo[4,5-c]quinolin-4-amine] | − | − | − | − | − | − | − | + | +

— patent publication US7148232B2, “Oxazolo, thiazolo and selenazolo [4,5-c]-quinolin-4-amines and analogs thereof” (3M Innovative Properties Company, priority 1998, dated 2006)
